The text below walks through data of patent US20020025512A1, “FLUORESCENCE POLARIZATION- BASED DIAGNOSTIC ASSAY FOR EQUINE INFECTIOUS ANEMIA VIRUS” (priority 1998, published 2002).

In one data set the test system is anti-EIAV IgG. In words: Fluorescence polarization of probe peptides with purified IgG from field-infected horse (Lady). It is filed as binding. Conditions: for change in FP with purified antibodies from field-infected animal: Lady IgG. As to the method: Due to problems encountered with testing horse serum, the initial evaluation made use of purified IgG from a reference long-term, field-infected horse (Lady). Purified IgG from field infected horse serum (100 μg/ml) was incubated with the candidate probe peptides (2 nM) in PBS for 20 min. The results are shown in FIG. 1, wherein black bars indicate probe added to IgG and gray bars indicate probe in buffer alone. All peptides were the 5-carboxyfluorescein derivatives. […] The other peptides in the panel had only slight changes in polarization in the presence of Lady IgG.
(§1) Fluorescence Polarization (FP) Measurements. The fluorescein-labeled peptides were evaluated for their suitability as probes for FP using an FPM-1 Fluorescence Polarization Analyzer (Jolley Consulting and Research, Grayslake, Ill.) batch mode with the following settings: PMT gain 80, heater off, single read. Serum was diluted 1:100 or 1:50 into 2 mL of buffer in 12×75 mm borosilicate glass tubes (VWR). After reading the blank, fluorescently labeled peptide was added to a final concentration of 1-2 nM (100K-200K total intensity) and incubated for at least 15 minutes. The FP of the sample was measured and expressed as millipolarization units (mP). Some of the sera were very dark, presumably due to hemolysis. If such a serum sample had low lamp feedback (<0.63), a two-fold further dilution was tested. Polarization data was output to a computer running the FPM-1 data collection software, then converted to an ASCII text file and imported into the Quattro Pro spreadsheet program (Corel, Ottawa, Ontario) for data analysis and graphing.

The test system of data set [1] is serum antibodies to equine infectious anemia virus. In words: Fluorescence polarization (FP) assay of fluorescein-labeled peptides with diluted horse serum. It is filed as binding. The conditions noted are these: for FP reactivity with experimentally infected serum: Pony 95 serum; for FP interaction with EIAV-positive sera: EIAV-positive sera incl. R51 FP-nonreactive samples; for FP signal of R51 with positive sera: approx. 2 nM peptide, 1:100 serum, 50 mM sodium phosphate pH 6.8, 20 min, 5CF vs 6CF label. Here is the method:
Several different buffer compositions and detergents were therefore tested for compatibility with horse serum. When horse serum was diluted 1:50 or 1:100 into 20-50 mM sodium phosphate without NaCl, this problem was virtually eliminated. […] Under the low-salt conditions, the polarization of peptide R51-5CF increased from 50 mP to over 200 mP with a 1:100 dilution of a strong positive EIAV antiserum from an experimental infection (Pony 95). Thus it was determined that the optimal buffer composition for the FP assay was 50 mM sodium phosphate, pH 6.8-7.0.
as §1
Because different fluorescein linkages can result in differences in sensitivity in the FP assay, R51 peptide was labeled with 6-carboxyfluorescein so the difference between the two labels could be ascertained. […] Peptides (approx. 2 nM) were incubated with a 1:100 dilution of serum in 50 mM sodium phosphate, pH 6.8, for 20 minutes. The results are shown in FIG. 2, in order of decreasing peptide length. In FIG. 2, black bars show the results for experimentally-infected (pony 95), hatched bars for field infected ([…]), gray bars for uninfected (Petite), and white bars for no serum added. […] As the R51-6CF probe was the most sensitive to the positive sera tested, 6-carboxyfluorescein is the preferred fluorophore. However, other fluorophores, such as rhodamine, BODIPY™ M, Texas Red™ and Lucifer yellow, could also be used. For a detailed listing of a variety of commercially available fluorophores, see Handbook of Fluorescent Probes and Research Chemicals, ed. Karen Larison, by Richard P. Haughland, Ph.D., 5th ed., 1992, published by Molecular Probes, Inc.

The subject of data set [2] is anti-EIAV antibodies in horse sera. Nature of the data set: Anti-fluorescein capture ELISA. The conditions noted are these: for ELISA reactivity: Pony 95 and Lady sera; for reactivity in the anti-fluorescein ELISA: general statement of Example 3; for ELISA reactivity with FP-nonreactive sera: sera 1:50, FP-nonreactors from Texas. It is filed as binding. As to the method: Anti-Fluorescein Capture ELISA. In order to measure antibody binding to test peptides without regard to their suitability for FP, an anti-fluorescein capture ELISA was used. To each well of an Immulon 2 HB 96-well plate (Dynex, Chantilly, Va.) was added 50 μL rabbit anti-fluorescein antibody (Molecular Probes), 3.5 μg/ml in 50 mM sodium bicarbonate, pH 9.6; the plates were sealed and incubated overnight. The wells were blocked with Blotto (5% nonfat dry milk, 5% normal bovine serum, 0.025% Tween 20 in PBS (PBST). The plates were then incubated with test horse sera, diluted 1:100 in Blotto, for 1 h at RT, washed as above, then incubated with anti-horse IgG(Fc)-HRP (United States Biochemical), diluted 1:10^5 in Blotto, for 1 h at RT and washed. The substrate, TM Blue Soluble reagent (200 μL/well; Intergen, Milford, Mass.) was added and incubated for 20 minutes with shaking, and the reaction stopped with the addition of 50 μL/well 1.0 N H2SO4 for 5 minutes with shaking. Absorbance at 450 nm was measured on a Dynex MR5000 microplate reader. Because each peptide caused a slightly different background absorbance, control wells containing no horse serum were included for each peptide tested.
Some of the sera from Missouri (4/10) could not be tested due to interference from a high level of hemolysis, resulting in low lamp feedback values. […] In order to confirm the serological status of FP-unreactive sera, they were tested in a western blot (data not shown) as well as in the antifluorescein-capture ELISA using the seven original peptides derived from the three major antigens mentioned above (FIG. 5). Sera (1:50 dilution) were tested for reactivity to four EIAV-derived, fluorescein-labeled peptides in an ELISA format as described in the methods. NHS, normal (uninfected) horse serum; Tx43 through Txll7, FP-nonreactive, Tx47 through pony 95, FP-reactive sera. Black bars, peptide R51F; hatched bars, R32; gray bars, pepl2; white bars, Sam50.

Data set [3] is described as follows: Behaviour of the R51 probe in solution (cyclization, dilution). The data set is classed as physicochemical. Here is the method:
Because R51 contains two Cys residues that may form a loop in the native protein, the differences in reactivity were assessed between linear or cyclized peptide (cyclic by virtue of an intramolecular disulfide bond).

No end group written: not given here. *: point of attachment. 5FAM = O=C1OC2(c3ccc(O)cc3Oc3cc(O)ccc32)c2ccc(C(=O)*)cc21

For “KERQQVEETFNLI (Equine infectious anemia virus) [R32]”, the “change in FP with purified antibodies from field-infected animal” value with anti-EIAV IgG is on record as “did not exhibit an increase in FP”. Also, the “FP reactivity with experimentally infected serum” value in data set [1] is on record as “some reactivity”. Moreover, in data set [2], the ELISA reactivity result is reported as “reacted very strongly”; the “reactivity in the anti-fluorescein ELISA” value is “strong and broad reactivity”; the “ELISA reactivity with FP-nonreactive sera” value is on record as “no measurable antibody”.

For the substance “LETWKLVKTSGVTPLPISSEANTGL (Equine infectious anemia virus) [Peptide 12]”, in the data set on anti-EIAV IgG, the “change in FP with purified antibodies from field-infected animal” value is reported as “did not exhibit an increase in FP”. Moreover, in data set [1], the “FP reactivity with experimentally infected serum” value is given as “some reactivity”. Besides, in data set [2], the ELISA reactivity entry is reported as “reacted very strongly”; the “reactivity in the anti-fluorescein ELISA” value is “strong and broad reactivity”; the “ELISA reactivity with FP-nonreactive sera” value was “bind only weakly”.

As to “ADDWDNRHPLPNAPLVAPPQGPIPMT (Equine infectious anemia virus) [Sam50]”, the “FP interaction with EIAV-positive sera” value in data set [1] was “insensitive to EIAV-positive sera”.

Take “QQVEETFNLI (Equine infectious anemia virus) [R32QQ]”: the “maximum FP” value in data set [1] (1:100 dilution of pony 95, R32 length series, fluorescein-6-isothiocyanate label) is recorded as above 200 mP. In addition, in data set [1], the “FP reactivity with experimentally infected serum” value was “most sensitive peptide”.

Consider “APLVAPPQGPIPMT (Equine infectious anemia virus) [Sam50A]”, for which the “FP interaction with EIAV-positive sera” value in data set [1] is “none of these analogs displayed a measurable interaction”.

Consider “R51-6CF: R51 peptide (SEQ ID NO 1) labeled with 6-carboxyfluorescein (IGCIERTHVFCHTG; cysteine pairing not given here; also: 6-carboxyfluorescein label, position not given here)”, for which the “polarization values of negative serum samples” value in data set [1] (110 AGID-negative sera, 1:100 dilution) came out at 73.6±3.0 mP. The “FP signal of R51 with positive sera” value in data set [1] is listed as above 300 mP. The “average mP value with field-infected sera” value in data set [1] (measurable sera of 153 field-infected animals, 1:100 dilution, ~2 nM peptide) came to 150±55 mP.

On to “R51-5CF: R51 peptide labeled at the N-terminus with 5-carboxyfluorescein (5FAM-IGCIERTHVFCHTG; cysteine pairing not given here)”, for which, in the data set on anti-EIAV IgG (probe 2 nM in PBS buffer alone, 5-carboxyfluorescein derivative), the free-peptide polarization level entry is given as “about 60 mP”. Also, the “FP in the presence of Lady IgG” value in the data set with anti-EIAV IgG (probe 2 nM, 60-100 μg/ml Lady IgG in PBS, 20 min) is recorded as “around 140 MP”. The “FP signal of R51 with positive sera” value in data set [1] was 220 mP. For the same substance, the “FP reactivity with field-infected horse serum” value in data set [1] (field infected horses (Lady)) is “sensitive to serum from field infected horses”. Also, in data set [1] (low-salt conditions, 1:100 dilution, experimental infection (Pony 95)), the “polarization with strong positive EIAV antiserum” value is given as “over 200 mP”. Also, the “polarization of peptide before serum” value in data set [1] (low-salt conditions, starting value) came out at 50 mP.

For the substance “IGCIERTHVFCHTG (Equine infectious anemia virus) [R51]”, the “sensitivity of cyclized vs linear peptide” value in data set [1] (cyclic by intramolecular disulfide bond, field isolates) is listed as “more sensitive to field isolates than the linear form”. The “ELISA reactivity with FP-nonreactive sera” value in data set [2] is given as “no measurable antibody”. The precipitation of probe entry in data set [3] (conditions that allow cyclization) is on record as “prone to precipitation”. Also, the stability of peptide entry in data set [3] (upon dilution) is “stable upon dilution”.

Turning to “HPLPNAPLVAPPQGPIPMT (Equine infectious anemia virus) [Sam50H]”, the “FP interaction with EIAV-positive sera” value in data set [1] was “none of these analogs displayed a measurable interaction”.
